Measurements reported in ChEMBL document CHEMBL1142550, “Thiopyrano[2,3-e]indol-2-ones: angelicin heteroanalogues with potent photoantiproliferative activity” (Bioorg Med Chem, 2008).

How the values were obtained:
Assay type in all cases: functional, cell-based
[1] = system: Jurkat; test: Photocytotoxicity against human JURKAT cells treated 30 mins before 2.5 J/cm'2 UVA irradiation measured after 72 hrs by MTT assay; details: light or radiation study
[2] = Photocytotoxicity against human NCTC 2544 cells treated 30 mins before 2.5 J/cm'2 UVA irradiation measured after 72 hrs by MTT assay; details: NCTC-2544, light or radiation study
[3] = Photocytotoxicity against human NCTC 2544 cells treated 30 mins before 3.75 J/cm'2 UVA irradiation measured after 72 hrs by MTT assay; details: NCTC-2544, light or radiation study
[4] = system: HL-60; test: Photocytotoxicity against human HL-60 cells treated 30 mins before 2.5 J/cm'2 UVA irradiation measured after 72 hrs by MTT assay; details: HL-60, light or radiation study
[5] = system: HL-60; test: Photocytotoxicity against human HL-60 cells treated 30 mins before 3.75 J/cm'2 UVA irradiation measured after 72 hrs by MTT assay; details: HL-60, light or radiation study
[6] = system: Jurkat; test: Photocytotoxicity against human JURKAT cells treated 30 mins before 3.75 J/cm'2 UVA irradiation measured after 72 hrs by MTT assay; details: light or radiation study
[7] = system: HT-1080; test: Photocytotoxicity against human HT1080 cells treated 30 mins before 2.5 J/cm'2 UVA irradiation measured after 72 hrs by MTT assay; details: HT-1080, light or radiation study
[8] = system: HT-1080; test: Photocytotoxicity against human HT1080 cells treated 30 mins before 3.75 J/cm'2 UVA irradiation measured after 72 hrs by MTT assay; details: HT-1080, light or radiation study
[9] = system: LoVo; test: Photocytotoxicity against human LoVo cells treated 30 mins before 2.5 J/cm'2 UVA irradiation measured after 72 hrs by MTT assay; details: light or radiation study
[10] = system: LoVo; test: Photocytotoxicity against human LoVo cells treated 30 mins before 3.75 J/cm'2 UVA irradiation measured after 72 hrs by MTT assay; details: light or radiation study

Row | Structure (SMILES) | IC50 [1] | IC50 [2] | IC50 [3] | IC50 [4] | IC50 [5] | IC50 [6] | IC50 [7] | IC50 [8] | IC50 [9] | IC50 [10]
1 | O=c1ccc2ccc3occc3c2o1 [ANGELICIN] | 0.9 µM | 4.2 µM | 1.5 µM | – | – | – | – | – | – | –
2 | Cc1cc2c(n1S(=O)(=O)c1ccccc1)CCc1ccc(=O)sc1-2 | 7.3 µM | > 20 µM | > 20 µM | > 10 µM | > 10 µM | 5 µM | > 20 µM | > 20 µM | > 20 µM | > 20 µM
3 | Cc1cc2c(n1C)CCc1ccc(=O)sc1-2 | > 10 µM | > 20 µM | > 20 µM | > 10 µM | > 10 µM | > 10 µM | > 20 µM | > 20 µM | > 20 µM | > 20 µM
4 | Cc1cc2c(n1-c1ccccc1)CCc1ccc(=O)sc1-2 | 4.2 µM | > 20 µM | > 20 µM | 6.2 µM | 2.7 µM | 3.5 µM | 11 µM | 10.5 µM | > 20 µM | 12.3 µM
